The target in experiment [1] is T1, Human CD73 (amino acid residues 27-549) (Homo sapiens, UniProt P21589).
T1 construct: Human CD73 (amino acid residues 27-549); His tag (N); made in house; host or cells: E. coli
T1 sequence (P21589 27-549): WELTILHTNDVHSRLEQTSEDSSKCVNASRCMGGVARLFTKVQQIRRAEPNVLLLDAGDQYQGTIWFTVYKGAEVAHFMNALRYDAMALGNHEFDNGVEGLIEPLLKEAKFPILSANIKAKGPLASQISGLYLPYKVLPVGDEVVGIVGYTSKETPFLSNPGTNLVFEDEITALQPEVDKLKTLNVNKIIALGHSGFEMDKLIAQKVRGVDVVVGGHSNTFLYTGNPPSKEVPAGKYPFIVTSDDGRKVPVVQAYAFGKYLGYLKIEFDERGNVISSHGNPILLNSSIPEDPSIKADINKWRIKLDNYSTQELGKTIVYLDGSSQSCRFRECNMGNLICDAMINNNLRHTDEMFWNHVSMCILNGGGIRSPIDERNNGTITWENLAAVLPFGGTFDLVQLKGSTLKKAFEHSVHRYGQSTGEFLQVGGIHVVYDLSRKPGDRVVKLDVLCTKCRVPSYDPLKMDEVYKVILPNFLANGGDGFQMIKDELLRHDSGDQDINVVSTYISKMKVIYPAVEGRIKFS
The experiment can be described thus: CD73 enzymatic assay (luciferase-based indirect assay, CellTiter-Glo). The format is biochemical. The conditions noted are these: 0.4 nM CD73, 150 μM AMP, 1 hour at room temperature. In a few lines: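 His-tagged human CD73 (27-549) from E. coli, 0.4 nM, with 150 μM AMP in 50 mM HEPES pH 7.4, 0.01% Tween 20; 1 h at room temperature. AMP remaining read by CellTiter-Glo 2.0 luminescence with 1 μM final ATP after 30 min. IC50 from nonlinear regression of % inhibition.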

The next experiment has as its target T2, human CD73 (Homo sapiens, UniProt P21589).
T2 construct: expressed in transfected cells
T2 sequence (P21589 27-549): T1 sequence (P21589 27-549)
Briefly: Inhibitor activity against CD73 in cell based assay (CD73 expressing CHO-K1 cells). The conditions noted are these: CHO-K1 cells expressing human CD73, 150 μM AMP, 4 hours of incubation; read-out: CHO-K1 CELL VARIANT: CD73 IC50. In a few lines: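 Stably transfected CHO-K1 cells expressing human CD73 (1×10^4/well) incubated 4 h with compound (8-point 1:3 titration, top 10 μM final, 0.2% DMSO) and 150 μM AMP. Residual AMP in supernatant measured by CellTiter-Glo luminescence with 1 μM ATP after 30 min at room temperature; IC50 by nonlinear regression of percent inhibition vs high/low controls.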

On to `CCOC(=O)N[C@H]1C[C@H](NC(=O)O[C@@H]2CCN(c3cn[nH]c(=O)c3Cl)C2)C1` [P-0169, (R)-1-(5-chloro-6-oxo-1,6-dihydropyridazin-4-yl)pyrrolidin-3-yl ethyl ((1R,3r)-cyclobutane-1,3-diyl)dicarbamate], for which the IC50 (in experiment [1]; on human CD73) was 0.001 to 10 µM throughout.
In the case of `CS(=O)(=O)N[C@H]1C[C@H](NC(=O)O[C@@H]2CCN(c3cn[nH]c(=O)c3Cl)C2)C1` [P-0170, (R)-1-(5-chloro-6-oxo-1,6-dihydropyridazin-4-yl)pyrrolidin-3-yl ((1r,3R)-3-(methylsulfonamido)cyclobutyl)carbamate], the concentration for half-maximal inhibition (IC50) (in experiment [1]; on human CD73) was 0.001 to 10 µM throughout.
Turning to `O=C(N[C@H]1C[C@H](NS(=O)(=O)c2ccccc2)C1)O[C@@H]1CCN(c2cn[nH]c(=O)c2Cl)C1` [P-0171, (R)-1-(5-chloro-6-oxo-1,6-dihydropyridazin-4-yl)pyrrolidin-3-yl ((1r,3R)-3-(phenylsulfonamido)cyclobutyl) carbamate], the IC50 (in experiment [1]; at human CD73) was 0.001 to 10 µM each time.
As for `O=CN[C@H]1C[C@H](NC(=O)O[C@@H]2CCN(c3cn[nH]c(=O)c3Cl)C2)C1` [P-0172, (R)-1-(5-chloro-6-oxo-1,6-dihydropyridazin-4-yl)pyrrolidin-3-yl ((1r,3R)-3-formamidocyclobutyl) carbamate], the IC50 (in experiment [1]; at human CD73) was 0.001 to 10 µM each time.
For `O=C(NC1CCCC1)N[C@H]1CC[C@H](NC(=O)O[C@@H]2CCN(c3cn[nH]c(=O)c3Cl)C2)CC1` [P-0173, (R)-1-(5-chloro-6-oxo-1,6-dihydropyridazin-4-yl)pyrrolidin-3-yl ((1r,4R)-4-(3-cyclopentylureido)cyclohexyl) carbamate], the IC50 (in experiment [1]; at human CD73) was 0.001 to 10 µM throughout.
As to `O=C(NC1CCCCC1)N[C@H]1CC[C@H](NC(=O)O[C@@H]2CCN(c3cn[nH]c(=O)c3Cl)C2)CC1` [P-0174, (R)-1-(5-chloro-6-oxo-1,6-dihydropyridazin-4-yl)pyrrolidin-3-yl ((1r,4R)-4-(3-cyclohexylureido)cyclohexyl) carbamate], the IC50 (in experiment [1]; on human CD73) was 0.001 to 10 µM each time.
As to `O=C(N[C@H]1CC[C@H](NS(=O)(=O)c2ccc(F)cc2)CC1)O[C@@H]1CCN(c2cn[nH]c(=O)c2Cl)C1` [P-0175, (R)-1-(5-chloro-6-oxo-1,6-dihydropyridazin-4-yl)pyrrolidin-3-yl ((1r,4R)-4-((4-fluorophenyl)sulfonamido)cyclohexyl)carbamate], the IC50 (in experiment [1]; at human CD73) was 0.001 to 10 µM in each case.
As for `O=C(N[C@H]1CC[C@H](NS(=O)(=O)c2ccccc2F)CC1)O[C@@H]1CCN(c2cn[nH]c(=O)c2Cl)C1` [P-0176, (R)-1-(5-chloro-6-oxo-1,6-dihydropyridazin-4-yl)pyrrolidin-3-yl ((1r,4R)-4-((2-fluorophenyl)sulfonamido)cyclohexyl)carbamate], the IC50 (in experiment [1]; on human CD73) was 0.001 to 10 µM in each case.
For `O=C(NCC1(CCl)CC(NC(=O)O[C@@H]2CCN(c3cn[nH]c(=O)c3Cl)C2)C1)Nc1ccc(F)cc1` (stereo partly drawn) [P-0177, (R)-1-(5-chloro-6-oxo-1,6-dihydropyridazin-4-yl)pyrrolidin-3-yl (3-(chloromethyl)-3-((3-(4-fluorophenyl)ureido)methyl)cyclobutyl)carbamate], the IC50 (in experiment [1]; on human CD73) was 0.001 to 10 µM each time.
On to `O=C(Nc1ccc(F)cc1)N[C@H]1CC[C@H](NC(=O)O[C@@H]2CCN(c3cn[nH]c(=O)c3Cl)C2)CC1` [P-0178, (R)-1-(5-chloro-6-oxo-1,6-dihydropyridazin-4-yl)pyrrolidin-3-yl ((1r,4R)-4-(3-(4-fluorophenyl)ureido)cyclohexyl)carbamate], for which the IC50 (in experiment [1]; on human CD73) was 0.001 to 10 µM each time.
Take `COC(=O)[C@H]1CC[C@@H](NC(=O)O[C@@H]2CCN(c3cn[nH]c(=O)c3Cl)C2)CC1` [P-0179, methyl (1S,4s)-4-(((((R)-1-(5-chloro-6-oxo-1,6-dihydropyridazin-4-yl)pyrrolidin-3-yl)oxy)carbonyl)amino) cyclohexane-1-carboxylate]: the IC50 (in experiment [1]; at human CD73) was 0.001 to 10 µM each time.
Regarding `O=C(N[C@H]1CC[C@@H](C(=O)O)CC1)O[C@@H]1CCN(c2cn[nH]c(=O)c2Cl)C1` [P-0180, (1S,4s)-4-(((((R)-1-(5-chloro-6-oxo-1,6-dihydropyridazin-4-yl)pyrrolidin-3-yl)oxy)carbonyl)amino) cyclohexane-1-carboxylic acid], the IC50 in experiment [1] lay within 0.001 to 10 µM; at human CD73 it was 10 to 100 µM.
Regarding `NC(=O)[C@H]1CC[C@@H](NC(=O)O[C@@H]2CCN(c3cn[nH]c(=O)c3Cl)C2)CC1` [P-0181, (R)-1-(5-chloro-6-oxo-1,6-dihydropyridazin-4-yl)pyrrolidin-3-yl ((1s,4S)-4-carbamoylcyclohexyl) carbamate], the IC50 (in experiment [1]; on human CD73) was 0.001 to 10 µM throughout.
For `CCCNC(=O)[C@H]1CC[C@@H](NC(=O)O[C@@H]2CCN(c3cn[nH]c(=O)c3Cl)C2)CC1` [P-0182, (R)-1-(5-chloro-6-oxo-1,6-dihydropyridazin-4-yl)pyrrolidin-3-yl ((1s,4S)-4-(propylcarbamoyl)cyclohexyl) carbamate], the IC50 (in experiment [1]; at human CD73) was 0.001 to 10 µM each time.
Regarding `O=C(N[C@H]1CC[C@@H](C(=O)Nc2ccccc2)CC1)O[C@@H]1CCN(c2cn[nH]c(=O)c2Cl)C1` [P-0183, (R)-1-(5-chloro-6-oxo-1,6-dihydropyridazin-4-yl)pyrrolidin-3-yl ((1s,4S)-4-(phenylcarbamoyl)cyclohexyl) carbamate], the IC50 (in experiment [1]; on human CD73) was 0.001 to 10 µM in each case.
In the case of `O=C(N[C@H]1CC[C@H](NC(=O)c2ccccc2)CC1)O[C@@H]1CCN(c2cn[nH]c(=O)c2Cl)C1` [P-0184, (R)-1-(5-chloro-6-oxo-1,6-dihydropyridazin-4-yl)pyrrolidin-3-yl ((1r,4R)-4-benzamidocyclohexyl) carbamate], the IC50 (in experiment [1]; at human CD73) was 0.001 to 10 µM in each case.
For the compound `O=C(N[C@H]1CC[C@@H](NS(=O)(=O)c2ccc(F)cc2)CC1)O[C@@H]1CCN(c2cn[nH]c(=O)c2Cl)C1` [P-0185, (R)-1-(5-chloro-6-oxo-1,6-dihydropyridazin-4-yl)pyrrolidin-3-yl ((1s,4S)-4-((4-fluorophenyl)sulfonamido)cyclohexyl)carbamate], the IC50 (in experiment [1]; at human CD73) was 0.001 to 10 µM throughout.
`O=C(N[C@H]1CC[C@@H](NC(=O)c2ccccc2)CC1)O[C@@H]1CCN(c2cn[nH]c(=O)c2Cl)C1` [P-0186, (R)-1-(5-chloro-6-oxo-1,6-dihydropyridazin-4-yl)pyrrolidin-3-yl ((1s,4S)-4-benzamidocyclohexyl) carbamate]: the IC50 (in experiment [1]; at human CD73) was 0.001 to 10 µM each time.
Consider `COC(=O)[C@H]1CC[C@H](NC(=O)O[C@@H]2CCN(c3cn[nH]c(=O)c3Cl)C2)CC1` [P-0187, methyl (1R,4r)-4-(((((R)-1-(5-chloro-6-oxo-1,6-dihydropyridazin-4-yl)pyrrolidin-3-yl)oxy)carbonyl)amino) cyclohexane-1-carboxylate], for which the IC50 (in experiment [1]; at human CD73) was 0.001 to 10 µM each time.

Source of the values: US12509444B2, “Compounds and methods for CD73 modulation and indications therefor” (Plexxikon Inc., priority 2019, dated 2025).
